Literature values in US7261867B1 (Eastman Kodak Company, priority 2006, dated 2007).

Legend:
Details in all cases: 0.5% concentration in polymethylmethacrylate bone cement
Escherichia coli = test system: Escherichia coli
Pseudomonas aeruginosa = test system: Pseudomonas aeruginosa
Staphylococcus aureus = test system: Staphylococcus aureus

Measured: inhibition of bacterial growth

[Cl][Ag] [Silver chloride]
significantly inhibit: Escherichia coli | Pseudomonas aeruginosa | Staphylococcus aureus

O=S(=O)([O-])[O-].[Ag+].[Ag+] [silver sulphate]
significantly inhibit: Escherichia coli | Pseudomonas aeruginosa | Staphylococcus aureus

silver oxide
significantly inhibit: Escherichia coli | Pseudomonas aeruginosa | Staphylococcus aureus
